Test results reported in patent publication US20190345191A1, “CYCLIC DINUCLEOTIDE ANALOGS FOR TREATING CONDITIONS ASSOCIATED WITH STING (STIMULATOR OF INTERFERON GENES) ACTIVITY” (Innate Tumor Immunity, Inc., priority 2016, published 2019).

System: STING pathway
Test: STING pathway activation in THP1-Dual cells, NFκB pathway SEAP reporter
Format: cell-based
Settings: Homo sapiens, NFκB pathway reporter (secreted embryonic alkaline phosphatase, QUANTI-Blue, 620 nm), 24-hour or 48-hour assay duration not specified
Procedure: STING pathway activation by the compounds described herein was measured using THP1-Dual™ cells. These cells are THP1 monocytes that have been modified to be reporters for the NFκB pathway (by inducing secreted embryonic alkaline phosphatase (SEAP) expression) and the IRF pathway (by inducing secreted luciferase (LUCIA)). Both of these pathways are activated by STING agonists in these cells.
THP1 Dualtm cells (obtained from Invivogen) are maintained in a cell growth medium that includes Roswell Park Memorial Institute medium (RPMI), 10% fetal calf serum (FCS), 100 U/ml Pen/Strep, 2 mM L-glut, 10 mM Hepes, and 1 mM sodium pyruvate. Prior to the assay, the cells were transferred to an assay medium that includes RPMI, 5% FCS, 100 U/ml Pen/Strep, 2 mM L-glut, 10 mM Hepes, and 1 mM sodium pyruvate. Cells were then counted and evaluated for viability by trypan blue exclusion assay.
The compounds of the present invention can be assayed using, for example, the following procedure. Compounds were dissolved in water or DMSO depending, for example, on their solubility in water or DMSO. […]
To carry out the secreted embryonic alkaline phosphatase reporter, 10 μL of cell supernatant was mixed with 90 μL of QUANTI-Blue in a flat-bottom 384 well plate. […] SEAP activity was measured using a spectrophotometer set at 620 nm. […] Luminescence of the wells was then measured.

Compound `Nc1ncnc2c1ncn2[C@@H]1O[C@@H]2CNC(=O)N[C@H]3[C@@H](O)[C@H](n4cnc5c(N)ncnc54)O[C@@H]3CNC(=O)N[C@H]2[C@H]1O` [Compound 31, (2R,3R,3aS,7aR,9R,10R,10aS,14aR)-2,9-bis(6-amino-9H-purin-9-yl)-3,10-dihydroxydodecahydrodifuro[3,2-d:3′,2′-j][1,3,7,9]tetraazacyclododecine-5, 12(4H,6H)-dione] has an IC50 of 22.2 µM.

Compound `Nc1ncnc2c1ncn2[C@@H]1O[C@@H]2CNC(=S)N[C@H]3[C@@H](O)[C@H](n4cnc5c(N)ncnc54)O[C@@H]3CNC(=S)N[C@H]2[C@H]1O` [Compound 30, (2R,3R,3aS,7aR,9R,10R,10aS,14aR)-2,9-bis(6-amino-9H-purin-9-yl)-3,10-dihydroxydodecahydrodifuro[3,2-d:3′,2′-j][,3,7,9]tetraazacyclododecine-5,12(4H,6H)-dithione] has an IC50 of 25.4 µM.
